Reference: ChEMBL document CHEMBL4308854, “Novel indole-thiazolidinone conjugates: Design, synthesis and whole-cell phenotypic evaluation as a novel class of antimicrobial agents” (Eur J Med Chem, 2018)
Values after ≈ are worked out from the molar mass of the structure shown.

Columns and labels:
[1] = test system: Pseudomonas aeruginosa; assay: Antibacterial activity against Pseudomonas aeruginosa RCMB 010043 after 24 hrs by serial dilution method; format: functional; details: RCMB 010043, 24 h
[2] = test system: BT-549; assay: Growth inhibition of human BT549 cells assessed as cell growth at 10^-5 M incubated for 48 hrs by sulforhodamine B assay relative to control; format: cell-based; set-up: scale not given: the % may be the effect or the level left; details: bt-549, 48 h, 10 µM
[3] = test system: Malme-3M; assay: Growth inhibition of human MALME-3M cells assessed as cell growth at 10^-5 M incubated for 48 hrs by sulforhodamine B assay relative to control; format: cell-based; set-up: scale not given: the % may be the effect or the level left; details: 10 µM
[4] = test system: ACHN; assay: Growth inhibition of human ACHN cells assessed as cell growth at 10^-5 M incubated for 48 hrs by sulforhodamine B assay relative to control; format: cell-based; set-up: scale not given: the % may be the effect or the level left; details: 10 µM
[5] = test system: HCC 2998; assay: Growth inhibition of human HCC2998 cells assessed as cell growth at 10^-5 M incubated for 48 hrs by sulforhodamine B assay relative to control; format: cell-based; set-up: scale not given: the % may be the effect or the level left; details: hcc 2998, 48 h, 10 µM
[6] = test system: Escherichia coli; assay: Antibacterial activity against Escherichia coli RCMB 010052 assessed as diameter of zone inhibition after 24 hrs by agar well diffusion assay; format: functional
[7] = test system: RPMI-8226; assay: Growth inhibition of human RPMI8226 cells assessed as cell growth at 10^-5 M incubated for 48 hrs by sulforhodamine B assay relative to control; format: cell-based; set-up: scale not given: the % may be the effect or the level left; details: rpmi-8226, 48 h, 10 µM
[8] = test system: Pseudomonas aeruginosa; assay: Potency index, ratio of ciprofloxacin MIC to compound MIC for Pseudomonas aeruginosa RCMB 010043; format: functional
[9] = test system: Aspergillus fumigatus; assay: Potency index, ratio of amphotericin B MIC to compound MIC for antifungal activity against Aspergillus fumigatus RCMB 02568; format: functional
[10] = test system: Enterococcus faecium; assay: Antibacterial activity against vancomycin-resistant Enterococcus faecium ATCC 700221 after 24 hrs by serial dilution method; format: functional; details: ATCC 700221, 24 h
[11] = test system: Aspergillus fumigatus; assay: Potency index, ratio of amphotericin B MIC to compound MIC for Aspergillus fumigatus RCMB 02568; format: functional
[12] = test system: Staphylococcus aureus; assay: Antibacterial activity against methicillin-resistant Staphylococcus aureus ATCC 33592 after 24 hrs by serial dilution method; format: functional; details: ATCC 33592, 24 h

Row | Compound | MIC [1] | Activity [2] | Activity [3] | Activity [4] | Activity [5] | diameter of the inhibition zone (DIZ) [6] | Activity [7] | Ratio [8] | Ratio [9] | MIC [10] | Ratio [11] | MIC [12]
1 | CCOC(=O)c1sc(/N=C2\NC(=O)/C(=C3/C(=O)N(Cc4ccccc4)c4ccc(Cl)cc43)S2)nc1C | 1.95 µg/mL (≈ 3.62 µM) | 103.71% | 102.79% | 110.67% | 109.14% | 23.4 mm | 99.02% | 2 | – | – | – | –
2 | CC(=O)c1sc(/N=C2\NC(=O)/C(=C3/C(=O)N(C)c4ccc(Cl)cc43)S2)nc1C | 0.98 µg/mL (≈ 2.26 µM) | 94.91% | 85.96% | 104.32% | 112.5% | 25.1 mm | 110.22% | 4 | 2 | 7.81 µg/mL (≈ 18 µM) | 2 | 3.9 µg/mL (≈ 9.01 µM)
